Values of other authors, collected in US6548645B1, “Immunoassay for 2-oxo-3-hydroxy LSD” (Microgenetics Corporation, priority 1999, dated 2003).

Experiments:
[1] = tested on: antibodies generated by LSD immunogens (LSD analogs derivatized through N-1 or N-6 conjugated to a carrier); conditions: molar ratio; relative to LSD; antibodies of Salamone et al., Bioconjugate Chem 8:896-905 (1997)
[2] = man; calculated
[3] = doses as low as

Compound | cross-reactivity [1] | plasma half-life [2] | oral dose causing central nervous system disturbances (hallucinations, distortions in sensory perception, mood changes) [3] [µg]
CCN(CC)C(=O)C1C=C2c3cccc4c3C(O)(CC2N(C)C1)C(=O)N4 (stereo not drawn) [2PATENT -oxo-3-hydroxy-LSD, 2-oxo-3-hydroxy-LSD] | 30-45% |  | 
CCN(CC)C(=O)[C@@H]1C=C2c3cccc4[nH]cc(c34)C[C@H]2N(C)C1 [LSD] |  | about 3 hours | ≥ 25
